Data set [1] addresses T1, Lysine-specific histone demethylase 1A (Homo sapiens, UniProt O60341).
The test system of the next data set is MCF7. Put plainly: cells. The conditions noted are these: Homo sapiens.
The test system of the next data set is THP-1. Put plainly: cells. The conditions noted are these: Homo sapiens.
Data set [2] concerns A549. Description: cells. The conditions noted are these: Homo sapiens.
The test system of another data set is NCI-H460. Put plainly: cells. The conditions noted are these: Homo sapiens.
The nature of another data set: in vitro. Particulars: human, THLE-2 cells.
For another data set, the system named is MGC-803. Put plainly: cells. Particulars: Homo sapiens.
Data set [3] has as its target T1, Lysine-specific histone demethylase 1A. Description: Inhibition of LSD1 (unknown origin) at 0.4 uM relative to control.
The next data set addresses T2, MAO-A (Homo sapiens, UniProt P21397).
T2 sequence (P21397 whole entry): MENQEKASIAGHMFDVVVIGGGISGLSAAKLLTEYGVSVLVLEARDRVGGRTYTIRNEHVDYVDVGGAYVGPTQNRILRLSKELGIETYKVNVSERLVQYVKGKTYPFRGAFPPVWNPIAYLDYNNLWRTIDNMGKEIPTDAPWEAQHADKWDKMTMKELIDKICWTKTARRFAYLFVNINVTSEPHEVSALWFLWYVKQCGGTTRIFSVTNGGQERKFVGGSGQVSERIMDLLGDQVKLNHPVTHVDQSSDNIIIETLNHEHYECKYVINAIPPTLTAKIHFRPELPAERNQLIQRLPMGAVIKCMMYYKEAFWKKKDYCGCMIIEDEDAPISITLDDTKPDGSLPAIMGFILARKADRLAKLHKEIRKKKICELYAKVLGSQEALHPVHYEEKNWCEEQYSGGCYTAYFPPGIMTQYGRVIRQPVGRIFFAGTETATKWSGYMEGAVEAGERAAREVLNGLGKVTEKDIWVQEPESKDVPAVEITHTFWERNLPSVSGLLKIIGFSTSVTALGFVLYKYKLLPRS
Description: Inhibition of MAO-A (unknown origin) at 0.4 uM relative to control.

The subject of a further data set is SGC-7901. Put plainly: Antiproliferative activity against human SGC-7901 cells assessed as cell growth inhibition. The class given is functional, cell-based.
Data set [4] is described as follows: Antiproliferative activity against human SGC7901/ADR cells assessed as cell growth inhibition. The format is functional, cell-based. Particulars: SGC-7901.
A further data set deals with T3, MAO-B (Homo sapiens, UniProt P27338).
T3 sequence (P27338 whole entry): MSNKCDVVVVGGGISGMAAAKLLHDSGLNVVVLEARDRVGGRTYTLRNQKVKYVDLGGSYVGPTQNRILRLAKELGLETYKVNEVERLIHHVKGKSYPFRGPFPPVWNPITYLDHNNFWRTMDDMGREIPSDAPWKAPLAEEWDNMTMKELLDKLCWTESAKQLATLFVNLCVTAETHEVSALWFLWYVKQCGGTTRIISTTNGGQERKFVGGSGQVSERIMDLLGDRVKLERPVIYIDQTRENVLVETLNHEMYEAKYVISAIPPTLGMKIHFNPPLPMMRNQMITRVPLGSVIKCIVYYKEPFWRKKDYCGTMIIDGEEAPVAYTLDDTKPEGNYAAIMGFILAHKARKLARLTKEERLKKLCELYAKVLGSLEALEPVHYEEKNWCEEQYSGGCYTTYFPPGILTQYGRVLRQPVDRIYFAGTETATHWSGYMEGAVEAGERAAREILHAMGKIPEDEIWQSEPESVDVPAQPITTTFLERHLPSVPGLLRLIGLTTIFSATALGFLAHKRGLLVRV
Description: Inhibition of MAO-B (unknown origin) at 0.4 uM relative to control.

Data set [5] deals with A549.
The target of another data set is Histone deacetylase 2 (Homo sapiens, UniProt Q92769). Description: Inhibition of HDAC2 (unknown origin).
For another data set, the system named is HCT-116. Description: Antiproliferative activity against human HCT-116 cells assessed as cell growth inhibition. The class given is functional, cell-based.
Another data set has as its system PC-3. Put plainly: Antiproliferative activity against human PC-3 cells assessed as cell growth inhibition. The format is functional, cell-based.
A further data set has as its system SK-OV-3. Put plainly: Antiproliferative activity against human SK-OV-3 cells assessed as cell growth inhibition. The format is functional, cell-based.
The subject of another data set is HepG2. Description: Antiproliferative activity against human HepG2 cells assessed as cell growth inhibition. The class given is functional, cell-based.
The next data set has as its system Bel-7402. Put plainly: cells. Particulars: Homo sapiens.
A further data set relates to MDA-MB-231. Put plainly: Antiproliferative activity against human MDA-MB-231 cells assessed as cell growth inhibition. The format is functional, cell-based.

pIC50: −log10 of the molar value.

A word on the pIC50: it is −log10 of the IC50, conventionally taken in molar units. One may read the inhibition as the drop in the measured response relative to a control, in per cent. A low value points to little suppression.

Chain of Histone deacetylase 2 (Q92769 whole entry): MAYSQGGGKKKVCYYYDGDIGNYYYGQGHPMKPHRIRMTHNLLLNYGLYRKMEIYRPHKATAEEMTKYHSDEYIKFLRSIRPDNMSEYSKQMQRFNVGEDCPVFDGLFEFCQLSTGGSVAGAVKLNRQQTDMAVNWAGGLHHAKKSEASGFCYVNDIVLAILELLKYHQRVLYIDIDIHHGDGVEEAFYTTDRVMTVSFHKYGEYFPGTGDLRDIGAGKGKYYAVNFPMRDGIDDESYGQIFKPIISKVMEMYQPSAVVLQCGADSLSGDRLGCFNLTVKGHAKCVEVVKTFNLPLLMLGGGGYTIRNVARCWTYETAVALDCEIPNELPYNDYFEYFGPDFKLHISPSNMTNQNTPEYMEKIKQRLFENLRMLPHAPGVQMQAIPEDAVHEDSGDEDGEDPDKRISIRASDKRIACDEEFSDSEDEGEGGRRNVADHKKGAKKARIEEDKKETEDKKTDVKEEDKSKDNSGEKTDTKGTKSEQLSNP

As to `Cn1c(C(=O)Nc2cccc3c2N(Cc2ccc(OC4CCNCC4)cc2)CCC3)cc2cc(F)ccc21`, the pIC50 in [1] was 6.27.

`COc1cc(F)c(/C=C/c2ccc(C(=O)NO)cc2)cc1OC`: the figures for the pIC50 in the data set on MCF7, with THP-1 and in the data set on A549 [2] were 2.30, 5.67 and 5.80, respectively.

On to `CNCCCNCc1coc2cc(-c3ccc(C)cc3)c(-c3ccc(C#N)cc3)cc12`, for which the pIC50 with NCI-H460 was 5.73; in the data set on MCF7 it was 5.47; in “in vitro” it was 5.38; in the data set with MGC-803, 5.19; in the data set on THP-1, 5.31; in the data set with A549 [2], 5.39.

In turn, `COc1cc2c(c(O)c1OC)c(=O)c1ccccc1n2C` [ARBORININE] returned an inhibition in [3] of 99.3%. For the same compound, the figures for the inhibition at 0.4 µM on MAO-A and on MAO-B were 23.7% and 31%, respectively. For the same compound, the figures for the pIC50 (with SGC-7901; in data set [4]) were 5.71 and 6.62, respectively.

In data set [1], `Oc1ccc(C2CNCCc3c2cc(O)c(O)c3Cl)cc1` (configuration not stated) [FENOLDOPAM] showed a pIC50 of 6.05.

As for `O=C(c1ccc(OCCN2CCCCC2)cc1)c1c(-c2ccc(O)cc2)sc2cc(O)ccc12` [RALOXIFENE], in data set [1], the pIC50 was 5.68.

Consider `COc1cc(Br)c(/C=C/c2ccc(C(=O)NO)cc2)cc1OC`, for which, in the data set on A549 [5], the IC5 was 6.23 µM. Also, in the data set with THP-1, the pIC50 is 5.47.

With `Cc1ccc(-c2cc(/C=C/c3ccc(C(=O)NO)cc3)ccn2)c(F)c1`, on Histone deacetylase 2, the pIC50 was < 5.00.

Regarding `Cn1c(C(=O)CC(=O)Nc2cccc3c2CCCN3Cc2ccc(OC3CCNCC3)cc2)cc2ccccc21`, the pIC50 in the data set with MCF7 is 5.15; with A549 [2] it was 5.12.

On to `O=S1(=O)CCCCN(S(=O)(=O)c2ccc(-c3cnc(C4CC4)o3)cc2)c2ccccc21`, for which the pIC50 in the data set with HCT-116 is 6.58; in the data set with PC-3 it was 5.23; in the data set on SK-OV-3, 5.79; in the data set on HepG2, 5.66.

Take `COc1ccc(S(=O)(=O)N(CCSC(=S)N2CCN(C)CC2)c2cc(OC)c(OC)c(OC)c2)cc1`: the pIC50 with Bel-7402 is 6.49.

As for `N/C(=N\O)c1cccc(/C=C/c2ccnc(-c3cc(F)ccc3O)c2)c1`, on Histone deacetylase 2, the pIC50 was < 4.00.

Turning to `Oc1ccc(CC2NCCc3cc(O)c(O)cc32)cc1` (configuration not stated) [HIGENAMINE], in data set [1], the pIC50 is 5.83.

Turning to `Nc1ccc(C(=O)/C=C/c2ccccc2F)cc1`, the pIC50 in the data set with MDA-MB-231 was 4.46; with MCF7, 4.88.

On to `Cn1c(C(=O)Nc2cccc3c2CCCN3Cc2ccc(OC3CCNCC3)cc2[N+](=O)[O-])cc2sccc21`, for which the figures for the pIC50 with MCF7 and in the data set with A549 [2] were 5.63 and 5.67, respectively.

`O=C(CC(=O)c1ccc(C(F)(F)F)cc1)Nc1cccc2c1CCCN2Cc1ccc(OC2CCNCC2)cc1`: the negative-log IC50 (pIC50) was 6.46 in the data set with MCF7 and 5.07 in the data set on A549 [2].

For the compound `Cn1c(C(=O)Nc2cccc3c2CCCN3Cc2ccc(OC3CCNCC3)cc2)cc2sccc21`, the pIC50 with MCF7 was 5.16; in the data set with A549 [2], 5.28.
